Reference: patent US10590128B2, “6,7,8,9-tetrahydro-5H-pyrido[2,3-d]azepine dopamine D3 ligands” (Pfizer Inc., priority 2016, dated 2020)

Assays:
[1] = biological target: human dopamine D2 receptor (hD2R) (Homo sapiens, UniProt P14416); assay: Human D2 receptor binding assay ([^3H]-Spiperone); settings: CHO cells expressing hD2R, geometric mean of 2-5 determinations unless marked b (single determination)
Description: (§1) Human D2 Receptor and Human D3 Receptor Binding Assays:
(§2) These determined ligand and tissue concentrations were utilized in time course studies to determine linearity and equilibrium conditions for binding. […] The hD2R assay buffer contains 50 mM Tris (pH 7.4 @ 37° C.), 100 mM NaCl and 1 mM MgCl2. The hD3R assay buffer consists of 50 mM Tris (pH 7.4 at 37° C.), 120 mM NaCl, 5 mM MgCl2, 5 mM KCl and 2 mM CaCl2. Competitive binding experiments were initiated by the addition of 200 μL of the respective cell homogenate to 96-well plates containing […] test drugs (10 concentrations using ½ log dilutions) and 50 μL of ^3H-radioligand for a final volume of 250 μL. Non-specific binding was determined by radioligand binding in the presence of a saturating concentration of Haldol (10 μM). After the 20 minute incubation at 37° C., assay samples were rapidly filtered through Unifilter-96 GF/B PEI-coated filter plates and rinsed with ice-cold 50 mM Tris buffer (pH 7.4 at 4° C.). […] The IC50 value (concentration at which 50% inhibition of specific binding occurs) was calculated by linear regression of the concentration-response data in ActivityBase. Ki values were then calculated according to the Cheng-Prusoff equation:
(§3) [formula] where [L]=concentration of free radioligand and Kd=dissociation constant of radioligand for D3 receptor or D2 receptor.

[2] = biological target: human dopamine D3 receptor (hD3R) (Homo sapiens, UniProt P35462); assay: Human D3 receptor binding assay ([^3H]-7-OH-DPAT); settings: CHO cells expressing hD3R, geometric mean of 2-5 determinations unless marked b (single determination), read-out: hD3 in CHO cells Ki
Description: as §1, §2, §3

Sequence of human dopamine D3 receptor (hD3R) (P35462 whole entry): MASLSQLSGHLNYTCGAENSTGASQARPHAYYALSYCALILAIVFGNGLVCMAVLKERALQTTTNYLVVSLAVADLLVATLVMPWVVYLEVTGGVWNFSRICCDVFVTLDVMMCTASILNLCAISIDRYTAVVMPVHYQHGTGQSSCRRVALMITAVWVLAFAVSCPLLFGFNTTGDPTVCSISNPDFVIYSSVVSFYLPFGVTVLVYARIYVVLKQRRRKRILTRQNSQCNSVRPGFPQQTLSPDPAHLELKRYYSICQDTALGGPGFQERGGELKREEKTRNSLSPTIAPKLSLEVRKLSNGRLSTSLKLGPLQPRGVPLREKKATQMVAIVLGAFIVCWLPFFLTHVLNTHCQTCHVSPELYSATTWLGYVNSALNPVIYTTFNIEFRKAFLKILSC
Sequence of human dopamine D2 receptor (hD2R) (P14416 whole entry): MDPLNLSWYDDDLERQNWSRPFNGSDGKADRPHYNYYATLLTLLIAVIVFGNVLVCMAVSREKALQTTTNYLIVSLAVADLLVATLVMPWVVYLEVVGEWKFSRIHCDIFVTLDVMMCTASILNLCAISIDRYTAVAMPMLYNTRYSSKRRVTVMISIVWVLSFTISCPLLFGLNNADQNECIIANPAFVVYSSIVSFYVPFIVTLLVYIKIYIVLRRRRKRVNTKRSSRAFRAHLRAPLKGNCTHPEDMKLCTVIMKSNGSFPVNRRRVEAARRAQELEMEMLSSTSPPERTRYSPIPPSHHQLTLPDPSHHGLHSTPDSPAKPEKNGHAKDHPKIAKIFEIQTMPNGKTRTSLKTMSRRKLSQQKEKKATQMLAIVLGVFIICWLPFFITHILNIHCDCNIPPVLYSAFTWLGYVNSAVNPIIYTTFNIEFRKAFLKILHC

Row | SMILES | Ki [1] [nM] | Ki [2] [nM]
1 | CCN1CCc2cc(NS(=O)(=O)c3ccc(C4(F)CCCCC4)nc3)c(OC)nc2CC1 [Example 112, N-(7-ethyl-2-methoxy-6,7,8,9-tetrahydro-5H-pyrido[2,3-d]azepin-3-yl)-6-(1-fluorocyclohexyl)pyridine-3-sulfonamide] | 45.7 | 2.36
2 | Cc1ccc(S(=O)(=O)Nc2cc3c(nc2C(F)(F)F)CCN(C)CC3)cc1 [Example 139, 4-methyl-N-[7-methyl-2-(trifluoromethyl)-6,7,8,9-tetrahydro-5H-pyrido[2,3-d]azepin-3-yl]benzenesulfonamide] | > 4280 | 713
3 | COc1nc2c(cc1NS(=O)(=O)c1ccc([C@H]3CCCCO3)nc1)CCN(C)CC2 [Example 129, N-(2-methoxy-7-methyl-6,7,8,9-tetrahydro-5H-pyrido[2,3-d]azepin-3-yl)-6-[(2R)-tetrahydro-2H-pyran-2-yl]pyridine-3-sulfonamide] | 786 | 16.7
4 | CCOc1ccc(S(=O)(=O)Nc2cc3c(nc2OC(C)C)CCN(CC)CC3)cc1 [Example 14, 4-Ethoxy-N-[7-ethyl-2-(propan-2-yloxy)-6,7,8,9-tetrahydro-5H-pyrido[2,3-d]azepin-3-yl]benzenesulfonamide] | 36.6 | 3.81
5 | CCOc1ccc(S(=O)(=O)Nc2cc3c(nc2OC)CCN(CC)CC3)cc1 [Example 52, 4-ethoxy-N-(7-ethyl-2-methoxy-6,7,8,9-tetrahydro-5H-pyrido[2,3-d]azepin-3-yl)benzenesulfonamide] | 435 | 2.56
6 | CCN1CCc2cc(NS(=O)(=O)c3ccc(C4CCOC4)cc3)c(OC)nc2CC1 (centres unmarked) [Example 71, N-(7-ethyl-2-methoxy-6,7,8,9-tetrahydro-5H-pyrido[2,3-d]azepin-3-yl)-4-(tetrahydrofuran-3-yl)benzenesulfonamide] | 754 | 4.84
7 | CCN1CCc2cc(NS(=O)(=O)c3ccc4c(c3)CC(C)O4)c(OC)nc2CC1 (centres unmarked) [Example 67, N-(7-ethyl-2-methoxy-6,7,8,9-tetrahydro-5H-pyrido[2,3-d]azepin-3-yl)-2-methyl-2,3-dihydro-1-benzofuran-5-sulfonamide] | 660 | 4.02
8 | CCOc1ccc(S(=O)(=O)Nc2cc3c(nc2OC)CCN(CCOC)CC3)cc1 [Example 29, 4-ethoxy-N-[2-methoxy-7-(2-methoxyethyl)-6,7,8,9-tetrahydro-5H-pyrido[2,3-d]azepin-3-yl]benzenesulfonamide] | 1070 | 11.1
9 | COc1nc2c(cc1NS(=O)(=O)c1ccc([C@H]3C[C@H](OCCF)C3)cc1)CCN(C)CC2 [Example 3, 4-[trans-3-(2-Fluoroethoxy)cyclobutyl]-N-(2-methoxy-7-methyl-6,7,8,9-tetrahydro-5H-pyrido[2,3-d]azepin-3-yl)benzenesulfonamide] | 85.9 | 1.56
10 | COc1nc2c(cc1NS(=O)(=O)c1ccc(C(C)C)cc1)CCN(C)CC2 [Example 54, N-(2-methoxy-7-methyl-6,7,8,9-tetrahydro-5H-pyrido[2,3-d]azepin-3-yl)-4-(propan-2-yl)benzenesulfonamide] | 14.4 | 0.38
11 | CCN1CCc2cc(NS(=O)(=O)c3ccc(C4(F)CCOCC4)cc3)c(OC)nc2CC1 [Example 75, N-(7-ethyl-2-methoxy-6,7,8,9-tetrahydro-5H-pyrido[2,3-d]azepin-3-yl)-4-(4-fluorotetrahydro-2H-pyran-4-yl)benzenesulfonamide] | 262 | 3.2
12 | COc1nc2c(cc1NS(=O)(=O)c1ccc([C@H]3CCCCO3)cc1)CCNCC2 [Example 9, N-(2-Methoxy-6,7,8,9-tetrahydro-5H-pyrido[2,3-d]azepin-3-yl)-4-[(2R)-tetrahydro-2H-pyran-2-yl]benzenesulfonamide] | 1270 | 7.68
13 | CCN1CCc2cc(NS(=O)(=O)c3ccc(C4CCCC4)nc3)c(OC)nc2CC1 [Example 102, 6-cyclopentyl-N-(7-ethyl-2-methoxy-6,7,8,9-tetrahydro-5H-pyrido[2,3-d]azepin-3-yl)pyridine-3-sulfonamide] | 325 | 2.81
14 | COc1nc2c(cc1NS(=O)(=O)c1cnc(OC3CCC3)nc1)CCN(C)CC2 [Example 116, 2-(cyclobutyloxy)-N-(2-methoxy-7-methyl-6,7,8,9-tetrahydro-5H-pyrido[2,3-d]azepin-3-yl)pyrimidine-5-sulfonamide] | 379 | 7.17
15 | COc1nc2c(cc1NS(=O)(=O)c1ccc(CC3CCCC3)nc1)CCN(C)CC2 [Example 131, 6-(cyclopentylmethyl)-N-(2-methoxy-7-methyl-6,7,8,9-tetrahydro-5H-pyrido[2,3-d]azepin-3-yl)pyridine-3-sulfonamide] | 36.1 | 2.3
16 | CCN1CCc2cc(NS(=O)(=O)c3ccc(C4CCCCO4)cc3)c(OC)nc2CC1 (single isomer, unassigned) [Example 73] | 1040 | 4.41
17 | COc1nc2c(cc1NS(=O)(=O)c1ccc([C@]3(F)C[C@H](OC)C3)cc1)CCN(C)CC2 [Example 10, 4-(trans-1-Fluoro-3-methoxycyclobutyl)-N-(2-methoxy-7-methyl-6,7,8,9-tetrahydro-5H-pyrido[2,3-d]azepin-3-yl)benzenesulfonamide] | 99 | 1.16
18 | CCN1CCc2cc(NS(=O)(=O)c3ccc(C)cc3)c(OC)nc2CC1 [Example 53, N-(7-ethyl-2-methoxy-6,7,8,9-tetrahydro-5H-pyrido[2,3-d]azepin-3-yl)-4-methylbenzenesulfonamide] | 313 | 2.75

Next, values leading:

Row | Ki [1] [nM] | Ki [2] [nM] | SMILES
19 | 134 | 2.59 | COc1nc2c(cc1NS(=O)(=O)c1ccc(C3CC(F)(F)CCO3)cc1)CCN(C)CC2 (racemic) [Example 40, 4-(4,4-difluorotetrahydro-2H-pyran-2-yl)-N-(2-methoxy-7-methyl-6,7,8,9-tetrahydro-5H-pyrido[2,3-d]azepin-3-yl)benzenesulfonamide]
20 | 3.89 | 0.79 | COc1nc2c(cc1NS(=O)(=O)c1cnc(OC3CCCC3)c(C)c1)CCN(C)CC2 [Example 124, 6-(cyclopentyloxy)-N-(2-methoxy-7-methyl-6,7,8,9-tetrahydro-5H-pyrido[2,3-d]azepin-3-yl)-5-methylpyridine-3-sulfonamide]
21 | 90.2 | 1.95 | COc1nc2c(cc1NS(=O)(=O)c1ccc(OC3CCC3)nc1)CCN(C)CC2 [Example 17, 6-(cyclobutyloxy)-N-(2-methoxy-7-methyl-6,7,8,9-tetrahydro-5H-pyrido[2,3-d]azepin-3-yl)pyridine-3-sulfonamide]
22 | 100 | 2.3 | COc1nc2c(cc1NS(=O)(=O)c1ccc([C@@H]3CCCCO3)c(F)c1)CCN(C)CC2 [Example 111, 3-fluoro-N-(2-methoxy-7-methyl-6,7,8,9-tetrahydro-5H-pyrido[2,3-d]azepin-3-yl)-4-[(2S)-tetrahydro-2H-pyran-2-yl]benzenesulfonamide]
23 | 276 | 1.54 | CCN1CCc2cc(NS(=O)(=O)c3ccc(C)cc3C)c(OC)nc2CC1 [Example 65, N-(7-ethyl-2-methoxy-6,7,8,9-tetrahydro-5H-pyrido[2,3-d]azepin-3-yl)-2,4-dimethylbenzenesulfonamide]
24 | 522 | 2.43 | CCCN1CCc2cc(NS(=O)(=O)c3ccc(C)cc3)c(OC)nc2CC1 [Example 26, N-(2-methoxy-7-propyl-6,7,8,9-tetrahydro-5H-pyrido[2,3-d]azepin-3-yl)-4-methylbenzenesulfonamide]
25 | 213 | 14.8 | COc1nc2c(cc1NS(=O)(=O)c1ccc(C)cc1)CCN(CCCF)CC2 [Example 115, N-[7-(3-fluoropropyl)-2-methoxy-6,7,8,9-tetrahydro-5H-pyrido[2,3-d]azepin-3-yl]-4-methylbenzenesulfonamide]
26 | 1390 | 35.2 | COc1nc2c(cc1NS(=O)(=O)c1ccc(C3CCOC(C)(C)C3)cc1)CCN(C)CC2 (single isomer, unassigned) [Example 86]
27 | 600 | 5.53 | COc1nc2c(cc1NS(=O)(=O)c1ccc([C@H]3CC[C@@H](OC)CC3)cc1)CCN(C)CC2 [Example 92, 4-(cis-4-methoxycyclohexyl)-N-(2-methoxy-7-methyl-6,7,8,9-tetrahydro-5H-pyrido[2,3-d]azepin-3-yl)benzenesulfonamide]
28 | 303 | 3.24 | COc1nc2c(cc1NS(=O)(=O)c1ccc(C3CCOC(C)C3)cc1)CCN(C)CC2 (single isomer, unassigned) [Example 85]
29 | 663 | 6.35 | COc1nc2c(cc1NS(=O)(=O)c1ccc(C3(OC)CCCC3)nc1)CCN(C)CC2 [Example 100, 6-(1-methoxycyclopentyl)-N-(2-methoxy-7-methyl-6,7,8,9-tetrahydro-5H-pyrido[2,3-d]azepin-3-yl)pyridine-3-sulfonamide]
30 | – | 3.68 | COc1nc2c(cc1NS(=O)(=O)c1ccc(C3COC3)cc1)CCN(C)CC2 [Example 33, N-(2-methoxy-7-methyl-6,7,8,9-tetrahydro-5H-pyrido[2,3-d]azepin-3-yl)-4-(oxetan-3-yl)benzenesulfonamide]
